Assay results reported in ChEMBL document CHEMBL4406797, “Histone acetyltransferase inhibitors: An overview in synthesis, structure-activity relationship and molecular mechanism” (Eur J Med Chem, 2019).
Values after ≈ are worked out from the molar mass of the structure shown.

Legend:
[1] = target: T1, Histone acetyltransferase p300 (Homo sapiens, UniProt Q09472); assay: Inhibition of P300 (unknown origin)
[2] = system: HeLa; assay: Cytotoxicity against human HeLa cells assessed as reduction in cell viability by SRB assay; type: functional, cell-based
[3] = system: Hep 3B2; assay: Cytotoxicity against human Hep3B cells assessed as reduction in cell viability by SRB assay; type: functional, cell-based
[4] = system: MDA-MB-231; assay: Cytotoxicity against human MDA-MB-231 cells assessed as reduction in cell viability by SRB assay; type: functional, cell-based
[5] = system: A549; assay: Cytotoxicity against human A549 cells assessed as reduction in cell viability by SRB assay; type: functional, cell-based
[6] = system: HT-29; assay: Cytotoxicity against human HT-29 cells assessed as reduction in cell viability by SRB assay; type: functional, cell-based
[7] = system: HCT cell line; assay: Cytotoxicity against human HCT cells assessed as reduction in cell viability by SRB assay; type: functional, cell-based
[8] = target: T2, Histone acetyltransferase KAT2B (Homo sapiens, UniProt Q92831); assay: Inhibition of recombinant GST-tagged PCAF (32 residues) (unknown origin) expressed in Escherichia coli using radiolabelled acetyl-CoA as substrate after 20 mins by TopCount scintillation counting analysis
Target sequence in this assay (Q92831 whole entry): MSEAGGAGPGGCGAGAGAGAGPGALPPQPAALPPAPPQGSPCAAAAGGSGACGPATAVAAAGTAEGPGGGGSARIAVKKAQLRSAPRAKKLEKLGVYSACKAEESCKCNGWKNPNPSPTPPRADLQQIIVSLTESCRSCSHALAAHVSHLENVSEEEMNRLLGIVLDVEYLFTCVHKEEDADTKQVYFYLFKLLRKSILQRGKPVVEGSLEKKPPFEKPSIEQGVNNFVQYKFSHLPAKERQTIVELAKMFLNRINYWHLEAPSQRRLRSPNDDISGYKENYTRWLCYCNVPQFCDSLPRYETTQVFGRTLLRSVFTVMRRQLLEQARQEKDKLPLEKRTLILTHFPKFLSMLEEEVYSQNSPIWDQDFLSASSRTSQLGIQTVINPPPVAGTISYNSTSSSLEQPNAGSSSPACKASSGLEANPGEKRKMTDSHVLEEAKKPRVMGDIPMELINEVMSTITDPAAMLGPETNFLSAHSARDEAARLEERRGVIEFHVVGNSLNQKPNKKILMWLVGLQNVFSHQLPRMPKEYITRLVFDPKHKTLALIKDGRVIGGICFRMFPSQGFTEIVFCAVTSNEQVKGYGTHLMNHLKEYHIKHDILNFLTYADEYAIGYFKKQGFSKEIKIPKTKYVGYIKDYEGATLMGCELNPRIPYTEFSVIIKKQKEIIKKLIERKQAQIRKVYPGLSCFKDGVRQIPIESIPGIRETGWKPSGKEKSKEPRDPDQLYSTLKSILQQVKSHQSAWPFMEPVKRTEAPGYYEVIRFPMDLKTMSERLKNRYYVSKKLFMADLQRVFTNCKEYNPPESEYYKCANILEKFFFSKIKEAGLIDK

[9] = target: T2, Histone acetyltransferase KAT2B; assay: Inhibition of recombinant GST-tagged PCAF (32 residues) (unknown origin) expressed in Escherichia coli assessed as reduction in H3K9 acetylation using radiolabelled acetyl-CoA as substrate after 20 mins by TopCount scintillation counting analysis relative to control
Target sequence in this assay (Q92831 whole entry, looked up): as the sequence (Q92831 whole entry) above

[10] = target: T2, Histone acetyltransferase KAT2B; assay: Inhibition of recombinant GST-tagged PCAF (32 residues) (unknown origin) expressed in Escherichia coli assessed as reduction in H4K8 acetylation using radiolabelled acetyl-CoA as substrate after 20 mins by TopCount scintillation counting analysis relative to control
Target sequence in this assay (Q92831 whole entry, looked up): as the sequence (Q92831 whole entry) above

[11] = target: CREB-binding protein (Homo sapiens, UniProt Q92793); assay: Inhibition of recombinant CBP (unknown origin) at 500 uM using H3 peptide as substrate after 30 mins in presence of acetyl-CoA by fluorescence assay relative to control
[12] = target: T1, Histone acetyltransferase p300; assay: Displacement of [3H]-acetyl-CoA from P300 (unknown origin) using peptide as substrate after 60 mins
[13] = system: A549; assay: Cytotoxicity against human A549 cells after 48 hrs by MTT assay; type: functional, cell-based; details: A549, 48 h
[14] = system: U-937; assay: Induction of apoptosis in human U937 cells relative to control; type: functional
[15] = target: T1, Histone acetyltransferase p300; assay: Inhibition of P300 (unknown origin) relative to control; details: concentration not given here
[16] = organism: Homo sapiens; assay: Inhibition of Tip60 (unknown origin)/ PCAF (unknown origin)/ CBP (unknown origin) relative to control; details: concentration not given here
[17] = organism: Homo sapiens; assay: Inhibition of HAT (unknown origin) relative to control; design: concentration or dose not given beside the values; details: concentration not given here
[18] = target: T2, Histone acetyltransferase KAT2B; assay: Inhibition of PCAF (unknown origin) relative to control; details: concentration not given here
Target sequence in this assay (Q92831 whole entry, looked up): as the sequence (Q92831 whole entry) above

[19] = target: Histone acetyltransferase KAT2A (Homo sapiens) (UniProt Q92830); assay: Inhibition of GCN5 (unknown origin) relative to control; details: concentration not given here
[20] = target: Histone deacetylase 1 (Homo sapiens) (UniProt Q13547); assay: Inhibition of HDAC1 (unknown origin) relative to control; details: concentration not given here
[21] = target: CREB-binding protein/Histone acetyltransferase p300 (Homo sapiens, UniProt Q09472+Q92793); assay: Inhibition of p300 (unknown origin)/CBP (unknown origin); type: protein assay
[22] = target: T1, Histone acetyltransferase p300; assay: Displacement of [3H]-acetyl-CoA from recombinant GST-tagged P300 (unknown origin) by scintillation counting analysis

T1 sequence (Q09472 whole entry): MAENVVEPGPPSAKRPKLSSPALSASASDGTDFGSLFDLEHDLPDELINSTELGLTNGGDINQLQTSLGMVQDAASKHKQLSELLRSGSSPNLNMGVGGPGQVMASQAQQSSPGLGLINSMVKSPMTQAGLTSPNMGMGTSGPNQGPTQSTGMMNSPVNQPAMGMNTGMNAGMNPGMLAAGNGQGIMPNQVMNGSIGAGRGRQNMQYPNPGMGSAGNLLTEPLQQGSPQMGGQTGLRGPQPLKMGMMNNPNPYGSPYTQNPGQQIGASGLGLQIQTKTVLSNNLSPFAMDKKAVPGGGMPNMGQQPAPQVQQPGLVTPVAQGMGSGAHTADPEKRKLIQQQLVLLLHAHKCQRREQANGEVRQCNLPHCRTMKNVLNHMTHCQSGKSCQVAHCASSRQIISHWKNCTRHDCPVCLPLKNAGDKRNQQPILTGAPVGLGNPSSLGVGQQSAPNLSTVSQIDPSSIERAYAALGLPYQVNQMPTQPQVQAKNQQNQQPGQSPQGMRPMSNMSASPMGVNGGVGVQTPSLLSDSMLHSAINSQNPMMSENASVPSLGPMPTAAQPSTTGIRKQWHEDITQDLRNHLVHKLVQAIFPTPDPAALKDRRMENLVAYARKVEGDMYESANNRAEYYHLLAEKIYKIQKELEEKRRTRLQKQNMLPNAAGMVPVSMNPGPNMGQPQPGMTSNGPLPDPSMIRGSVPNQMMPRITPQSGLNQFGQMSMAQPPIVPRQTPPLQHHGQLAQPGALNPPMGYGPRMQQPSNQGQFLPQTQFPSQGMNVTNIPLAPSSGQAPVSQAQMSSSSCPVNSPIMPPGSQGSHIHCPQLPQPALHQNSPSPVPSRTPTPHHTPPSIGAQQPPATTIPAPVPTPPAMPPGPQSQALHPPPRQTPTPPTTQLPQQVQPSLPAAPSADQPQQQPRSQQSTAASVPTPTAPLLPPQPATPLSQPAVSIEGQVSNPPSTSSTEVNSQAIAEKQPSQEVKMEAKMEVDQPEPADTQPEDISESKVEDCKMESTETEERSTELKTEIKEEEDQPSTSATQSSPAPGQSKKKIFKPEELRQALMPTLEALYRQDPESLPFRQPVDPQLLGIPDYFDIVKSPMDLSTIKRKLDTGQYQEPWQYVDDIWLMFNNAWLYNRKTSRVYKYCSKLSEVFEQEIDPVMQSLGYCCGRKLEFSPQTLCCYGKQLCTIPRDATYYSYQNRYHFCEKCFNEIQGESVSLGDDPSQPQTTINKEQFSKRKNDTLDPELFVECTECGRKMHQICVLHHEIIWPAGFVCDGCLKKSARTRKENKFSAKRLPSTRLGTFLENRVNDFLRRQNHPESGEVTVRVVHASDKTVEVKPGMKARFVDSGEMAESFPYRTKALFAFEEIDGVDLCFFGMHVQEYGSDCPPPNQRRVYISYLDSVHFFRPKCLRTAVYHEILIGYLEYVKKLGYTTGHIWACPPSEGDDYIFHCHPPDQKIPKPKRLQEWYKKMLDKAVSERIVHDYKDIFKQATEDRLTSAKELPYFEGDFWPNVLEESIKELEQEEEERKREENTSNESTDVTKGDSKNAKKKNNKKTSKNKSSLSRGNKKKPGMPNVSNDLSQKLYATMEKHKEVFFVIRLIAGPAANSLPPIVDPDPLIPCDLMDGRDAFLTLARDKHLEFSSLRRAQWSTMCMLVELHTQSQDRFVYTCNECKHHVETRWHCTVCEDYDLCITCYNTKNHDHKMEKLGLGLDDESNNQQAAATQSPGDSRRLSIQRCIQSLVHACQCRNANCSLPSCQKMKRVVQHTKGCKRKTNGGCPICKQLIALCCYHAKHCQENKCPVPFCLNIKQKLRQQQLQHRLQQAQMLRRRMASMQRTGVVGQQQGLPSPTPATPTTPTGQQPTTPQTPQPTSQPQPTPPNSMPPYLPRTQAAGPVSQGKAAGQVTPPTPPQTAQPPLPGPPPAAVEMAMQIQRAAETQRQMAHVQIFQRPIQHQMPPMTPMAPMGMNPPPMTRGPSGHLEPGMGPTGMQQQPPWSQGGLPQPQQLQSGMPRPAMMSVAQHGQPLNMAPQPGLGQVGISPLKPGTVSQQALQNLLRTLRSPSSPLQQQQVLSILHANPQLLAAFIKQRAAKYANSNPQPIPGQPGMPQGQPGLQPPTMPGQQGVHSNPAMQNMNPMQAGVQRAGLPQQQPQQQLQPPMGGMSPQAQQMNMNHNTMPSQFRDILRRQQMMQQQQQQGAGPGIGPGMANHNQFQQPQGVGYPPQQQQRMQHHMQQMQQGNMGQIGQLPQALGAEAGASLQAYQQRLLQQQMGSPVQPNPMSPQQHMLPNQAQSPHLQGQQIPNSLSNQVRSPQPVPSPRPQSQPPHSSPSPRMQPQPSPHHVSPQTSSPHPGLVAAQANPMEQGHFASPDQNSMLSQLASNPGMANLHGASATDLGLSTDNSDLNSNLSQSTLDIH
Sequence of Histone deacetylase 1 (Homo sapiens) (Q13547 whole entry): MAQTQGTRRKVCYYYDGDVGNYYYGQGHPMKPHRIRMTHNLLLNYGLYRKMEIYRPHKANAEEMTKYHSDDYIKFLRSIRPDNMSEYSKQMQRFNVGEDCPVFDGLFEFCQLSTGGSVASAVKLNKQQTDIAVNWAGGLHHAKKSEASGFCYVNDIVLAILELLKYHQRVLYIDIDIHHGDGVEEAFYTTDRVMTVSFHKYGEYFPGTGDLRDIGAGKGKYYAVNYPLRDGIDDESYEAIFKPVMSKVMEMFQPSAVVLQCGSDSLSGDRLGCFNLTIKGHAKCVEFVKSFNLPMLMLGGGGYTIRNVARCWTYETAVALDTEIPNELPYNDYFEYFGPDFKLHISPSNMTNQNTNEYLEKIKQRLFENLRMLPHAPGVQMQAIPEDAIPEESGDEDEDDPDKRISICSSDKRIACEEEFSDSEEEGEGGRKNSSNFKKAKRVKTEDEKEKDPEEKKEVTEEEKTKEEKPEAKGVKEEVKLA
Sequence of Histone acetyltransferase KAT2A (Homo sapiens) (Q92830 2-837 limits assumed): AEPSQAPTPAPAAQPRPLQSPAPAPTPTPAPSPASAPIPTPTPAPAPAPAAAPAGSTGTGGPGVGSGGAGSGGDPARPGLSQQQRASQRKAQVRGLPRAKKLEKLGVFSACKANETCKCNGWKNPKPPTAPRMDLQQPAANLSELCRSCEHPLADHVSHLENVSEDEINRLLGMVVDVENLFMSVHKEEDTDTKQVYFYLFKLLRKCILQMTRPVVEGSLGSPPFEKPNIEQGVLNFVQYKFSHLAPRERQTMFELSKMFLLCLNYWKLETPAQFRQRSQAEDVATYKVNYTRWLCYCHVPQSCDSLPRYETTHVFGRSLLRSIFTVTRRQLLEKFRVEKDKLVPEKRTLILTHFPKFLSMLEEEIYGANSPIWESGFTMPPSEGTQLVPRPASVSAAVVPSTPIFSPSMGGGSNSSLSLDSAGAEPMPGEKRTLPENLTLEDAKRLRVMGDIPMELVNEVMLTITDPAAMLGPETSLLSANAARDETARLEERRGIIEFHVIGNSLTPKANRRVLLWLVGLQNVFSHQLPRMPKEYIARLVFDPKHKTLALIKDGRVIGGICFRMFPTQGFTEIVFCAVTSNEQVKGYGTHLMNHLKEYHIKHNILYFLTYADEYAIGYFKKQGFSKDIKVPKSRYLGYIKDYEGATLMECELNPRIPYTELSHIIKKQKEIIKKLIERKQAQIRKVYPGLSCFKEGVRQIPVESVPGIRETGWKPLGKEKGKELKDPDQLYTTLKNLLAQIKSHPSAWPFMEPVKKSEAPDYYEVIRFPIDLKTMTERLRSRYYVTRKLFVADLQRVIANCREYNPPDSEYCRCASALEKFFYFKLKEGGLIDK

## COc1ccc(S(=O)(=O)ON=C2C=C(C)C(=O)C(C)=C2)cc1
[1]
  IC50: > 30 µM

## CCCCCCCCCCCCCCCC(=O)Nc1ccccc1C(=O)Nc1ccc(C(=O)O)cc1
[2]
  IC50: 25 to 50 µM
[3]
  IC50: 25 to 50 µM
[4]
  IC50: 25 to 50 µM
[5]
  IC50: 25 to 50 µM
[6]
  IC50: 25 to 50 µM
[7]
  IC50: 25 to 50 µM

## O=c1cc(Cl)sn1-c1ccc([N+](=O)[O-])cc1
[8]
  IC50: 2.2 µM
[9]
  inhibition: 38.6%
[10]
  inhibition: 55.5%

## Cc1cc(/C=C2\CCC/C(=C\c3cc(C)c(O)c(C)c3)C2=O)cc(C)c1O
[11]
  inhibition: 40%

## COc1ccc2c(c1OC)C[N+]1(Cc3ccccc3)CCCc3cc4c(cc3C1C2)OCO4 (stereo not given)
[12]
  IC50: 1.8 to 44 µM

## COc1cc2c(cc1OC)-c1cc3ccc(OC)c(OCc4ccc([N+](=O)[O-])cc4)c3c[n+]1CCC2
[12]
  IC50: < 10 µM

## COc1cc(OC)cc(C(=O)Nc2ccc3c(C)c(C(=O)c4cc(OC)ccc4OC)oc3c2)c1
[13]
  IC50: 58.3 µg/mL (≈ 123 µM)

## COc1cc2c(cc1OC)C[N+]1(Cc3ccccc3)CCCc3cc(OC)c(OC)cc3C1C2 (stereo not given)
[12]
  IC50: < 10 µM

## CC(C)=CC[C@H]1C[C@@]23C[C@@H](CC=C(C)C)C(C)(C)[C@@](CC=C(C)C)(C(=O)C(C(=O)c4ccc(C(C)C)c(O)c4)=C2OC1(C)C)C3=O
[1]
  IC50: 5 to 7 µM

## CCCCCCCCCCCCCCCC(=O)Nc1ccccc1C(=O)Nc1cccc(C(=O)O)c1
[2]
  IC50: 25 to 50 µM
[3]
  IC50: 25 to 50 µM
[4]
  IC50: 25 to 50 µM
[5]
  IC50: 25 to 50 µM
[6]
  IC50: 25 to 50 µM
[7]
  IC50: 25 to 50 µM

## CCOC(=O)c1c(C)nc2ccccc2c1O
[14]
  Activity: 27%

## CC(C)C1=CC2=CC(=O)[C@H]3C(C)(C)CCC[C@]3(C)C2=C(O)C1=O [TAXODIONE]
[1]
  IC50: 4.85 µM

## O=C1/C(=C/c2ccc(O)cc2)CCC/C1=C\c1ccc(O)cc1
[11]
  inhibition: 40%

## Oc1cc(O)c2c(c1)O[C@H](c1ccc(O)c(O)c1)[C@@H](O)[C@@H]2c1c(O)cc(O)c2c1O[C@H](c1ccc(O)c(O)c1)[C@@H](O)C2
[15]
  inhibition: 60%
[16]
  inhibition: < 40%
[17]
  inhibition: 90%

## N#Cc1cccc(/C=C2\CCC/C(=C\c3cccc(C#N)c3)C2=O)c1
[11]
  inhibition: > 80%

## O=C(O[C@@H]1Cc2c(O)cc(O)cc2O[C@@H]1c1cc(O)c(O)c(O)c1)c1cc(O)c(O)c(O)c1
[17]
  inhibition: 50%

## CC(C)=CC[C@H]1C[C@@]23C[C@@H](CC=C(C)C)C(C)(C)[C@@](CC=C(C)C)(C(=O)C(C(=O)c4ccc(OS(C)(=O)=O)c(OS(C)(=O)=O)c4)=C2OC1(C)C)C3=O
[18]
  inhibition: < 10%
[19]
  inhibition: < 10%
[20]
  inhibition: < 10%
[1]
  IC50: 5 to 7 µM

## COc1ccc2cc3[n+](cc2c1OC)CCCc1cc2c(cc1-3)OCO2
[12]
  IC50: 1.8 to 44 µM

## Oc1cc(O)c2cc(O)c(-c3cc(O)c(O)c(O)c3)[o+]c2c1.[Cl-] [DELPHINIDIN CHLORIDE]
[21]
  IC50: 30 µM

## N=C(N)NCCC[C@@H]1NC(=O)/C(=C\c2ccc(O)c(OCC[C@H](NC(=O)C[C@](O)(CC(=O)O)C(=O)O)C(=O)O)c2)NC1=O (stereo in doubt)
[22]
  IC50: 0.022 µM

## O=C1/C(=C/c2cccc(Br)c2)CCC/C1=C\c1cccc(Br)c1
[11]
  inhibition: > 80%

## Oc1cc(O)c2c(c1)O[C@H](c1ccc(O)c(O)c1)[C@H](O)[C@H]2c1c(O)cc(O)c2c1O[C@H](c1ccc(O)c(O)c1)[C@H](O)C2
[17]
  inhibition: 50%

## CCOC(=O)C1C/C(=C\c2ccc(O)c(Br)c2)C(=O)/C(=C/c2ccc(O)c(Br)c2)C1 (stereo not given)
[11]
  inhibition: 85%
